Laboratory results: PubChem BioAssay AID2060511 (Molecular Pharmacology Branch, DTP, NCI, 2025)
pIC50: −log10 of the molar value.

Tested on: 422866-222-R5-J1-PDC spheroids with HUVEC/MSC, viability
Assay: Anticancer human tumor 422866-222-R5-J1-PDC patient-derived pancreatic adenocarcinoma cell line growth inhibition [GQUAD]
Conditions: for pIC50: curve of first compound; for viability, T/C: stronger effect = lower value
Summary of the method: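 Viability of tumor cells grown as complex spheroids with endothelial and stromal cells, exposed to drug combinations. Top concentration at or near clinical Cmax (else 10 microM), diluted in half-log increments.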

[1] = second compound 0.0316 µM, first compound 0.0316 µM
[2] = second compound 0.0316 µM, first compound 0.1 µM
[3] = second compound 0.0316 µM, first compound 0.316 µM
[4] = second compound 0.0316 µM, first compound 1 µM
[5] = second compound 0.0316 µM, first compound 3.16 µM
[6] = second compound 0.0316 µM, first compound 10 µM
[7] = second compound 0.1 µM, first compound 0.0316 µM
[8] = second compound 0.1 µM, first compound 0.1 µM
[9] = second compound 0.1 µM, first compound 0.316 µM
[10] = second compound 0.1 µM, first compound 1 µM
[11] = second compound 0.1 µM, first compound 3.16 µM
[12] = second compound 0.1 µM, first compound 10 µM
[13] = second compound 0.316 µM, first compound 0.0316 µM
[14] = second compound 0.316 µM, first compound 0.1 µM
[15] = second compound 0.316 µM, first compound 0.316 µM
[16] = second compound 0.316 µM, first compound 1 µM
[17] = second compound 0.316 µM, first compound 3.16 µM
[18] = second compound 0.316 µM, first compound 10 µM
[19] = second compound 1 µM, first compound 0.0316 µM
[20] = second compound 1 µM, first compound 0.1 µM
[21] = second compound 1 µM, first compound 0.316 µM
[22] = second compound 1 µM, first compound 1 µM
[23] = second compound 1 µM, first compound 3.16 µM
[24] = second compound 1 µM, first compound 10 µM
[25] = second compound 3.16 µM, first compound 0.0316 µM
[26] = second compound 3.16 µM, first compound 0.1 µM
[27] = second compound 3.16 µM, first compound 0.316 µM
[28] = second compound 3.16 µM, first compound 1 µM
[29] = second compound 3.16 µM, first compound 3.16 µM
[30] = second compound 3.16 µM, first compound 10 µM
[31] = second compound 10 µM, first compound 0.0316 µM
[32] = second compound 10 µM, first compound 0.1 µM
[33] = second compound 10 µM, first compound 0.316 µM
[34] = second compound 10 µM, first compound 1 µM
[35] = second compound 10 µM, first compound 3.16 µM
[36] = second compound 10 µM, first compound 10 µM
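Note: spheroids exposed to compounds for seven days before reading.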
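Throughout, for viability, T/C: percent viability relative to DMSO vehicle control taken as 100%.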

**Q.** With `C#Cc1c(F)ccc2cc(O)cc(-c3ncc4c(N5CC6CCC(C5)N6)nc(OCC56CCCN5CC(F)C6)nc4c3F)c12` (stereo unspecified) + CN(C)c1ccc(Nc2c3ccc(NC(=O)CCN4CCCC4)cc3nc3cc(NC(=O)CCN4CCCC4)ccc23)cc1 as the compound, how does the pIC50 (second compound 0.0316 µM) read?
**A.** 5.95

**Q.** And the pIC50 (second compound 0.1 µM)?
**A.** 5.90

**Q.** And the pIC50 (second compound 0.316 µM)?
**A.** 5.92

**Q.** What about the pIC50 (second compound 1 µM) of the same compound?
**A.** 5.95

**Q.** What about the pIC50 (second compound 3.16 µM) of the same compound?
**A.** 6.04

**Q.** What about the pIC50 (second compound 10 µM) of the same compound?
**A.** 5.80

**Q.** What about the viability, T/C [1] of the same compound?
**A.** 97.9%

**Q.** And the viability, T/C [2]?
**A.** 91.8%

**Q.** What about the viability, T/C [3] of the same compound?
**A.** 87.2%

**Q.** What about the viability, T/C [4] of the same compound?
**A.** 50.8%

**Q.** And the viability, T/C [5]?
**A.** 36.8%

**Q.** What about the viability, T/C [6] of the same compound?
**A.** 29.4%

**Q.** And the viability, T/C [7]?
**A.** 102%

**Q.** And the viability, T/C [8]?
**A.** 83.4%

**Q.** And the viability, T/C [9]?
**A.** 89.6%

**Q.** And the viability, T/C [10]?
**A.** 51.1%

**Q.** And the viability, T/C [11]?
**A.** 39.9%

**Q.** And the viability, T/C [12]?
**A.** 27.3%

**Q.** What about the viability, T/C [13] of the same compound?
**A.** 93.2%

**Q.** What about the viability, T/C [14] of the same compound?
**A.** 85.9%

**Q.** What about the viability, T/C [15] of the same compound?
**A.** 64.5%

**Q.** What about the viability, T/C [16] of the same compound?
**A.** 53.5%

**Q.** What about the viability, T/C [17] of the same compound?
**A.** 39.3%

**Q.** And the viability, T/C [18]?
**A.** 30.2%

**Q.** And the viability, T/C [19]?
**A.** 96.4%

**Q.** And the viability, T/C [20]?
**A.** 83.6%

**Q.** What about the viability, T/C [21] of the same compound?
**A.** 65.7%

**Q.** And the viability, T/C [22]?
**A.** 50.1%

**Q.** And the viability, T/C [23]?
**A.** 42.1%

**Q.** And the viability, T/C [24]?
**A.** 33.6%

**Q.** And the viability, T/C [25]?
**A.** 80.5%

**Q.** What about the viability, T/C [26] of the same compound?
**A.** 96.1%

**Q.** What about the viability, T/C [27] of the same compound?
**A.** 68.6%

**Q.** And the viability, T/C [28]?
**A.** 49.5%

**Q.** What about the viability, T/C [29] of the same compound?
**A.** 40.3%

**Q.** What about the viability, T/C [30] of the same compound?
**A.** 32.2%

**Q.** What about the viability, T/C [31] of the same compound?
**A.** 84.6%

**Q.** And the viability, T/C [32]?
**A.** 85.1%

**Q.** What about the viability, T/C [33] of the same compound?
**A.** 78.5%

**Q.** And the viability, T/C [34]?
**A.** 50.8%

**Q.** What about the viability, T/C [35] of the same compound?
**A.** 45.5%

**Q.** And the viability, T/C [36]?
**A.** 27.2%

**Q.** What does the source list for `CC(=O)O[C@H]1C(=O)[C@@]2(C)[C@H]([C@H](OC(=O)c3ccccc3)[C@]3(O)C[C@H](OC(=O)[C@H](O)[C@@H](NC(=O)c4ccccc4)c4ccccc4)C(C)=C1C3(C)C)[C@]1(OC(C)=O)CO[C@@H]1C[C@@H]2O` + CN(C)c1ccc(Nc2c3ccc(NC(=O)CCN4CCCC4)cc3nc3cc(NC(=O)CCN4CCCC4)ccc23)cc1?
**A.** pIC50 (second compound 0.0316 µM): < 5.00; pIC50 (second compound 0.1 µM): < 5.00; pIC50 (second compound 0.316 µM): < 5.00; pIC50 (second compound 1 µM): < 5.00; pIC50 (second compound 3.16 µM): < 5.00; pIC50 (second compound 10 µM): < 5.00; viability, T/C [1]: 78.2%; viability, T/C [2]: 72.8%; viability, T/C [3]: 63.9%; viability, T/C [4]: 66.5%; viability, T/C [5]: 75.6%; viability, T/C [6]: 86%; viability, T/C [7]: 88%; viability, T/C [8]: 60.7%; viability, T/C [9]: 65.1%; viability, T/C [10]: 67.6%; viability, T/C [11]: 74.3%; viability, T/C [12]: 79.7%; viability, T/C [13]: 87.6%; viability, T/C [14]: 63.1%; viability, T/C [15]: 51.3%; viability, T/C [16]: 72.4%; viability, T/C [17]: 77.2%; viability, T/C [18]: 81.4%; viability, T/C [19]: 59.5%; viability, T/C [20]: 60.5%; viability, T/C [21]: 74.6%; viability, T/C [22]: 65.9%; viability, T/C [23]: 71%; viability, T/C [24]: 85.6%; viability, T/C [25]: 62.9%; viability, T/C [26]: 68.9%; viability, T/C [27]: 68.1%; viability, T/C [28]: 65.2%; viability, T/C [29]: 76.3%; viability, T/C [30]: 87.6%; viability, T/C [31]: 63.8%; viability, T/C [32]: 67.1%; viability, T/C [33]: 76.5%; viability, T/C [34]: 79.9%; viability, T/C [35]: 80.3%; viability, T/C [36]: 92.4%

**Q.** What does the source list for `CCCS(=O)(=O)Nc1ccc(F)c(C(=O)c2c[nH]c3ncc(-c4ccc(Cl)cc4)cc23)c1F` + CN(C)c1ccc(Nc2c3ccc(NC(=O)CCN4CCCC4)cc3nc3cc(NC(=O)CCN4CCCC4)ccc23)cc1?
**A.** pIC50 (second compound 0.0316 µM): < 5.00; pIC50 (second compound 0.1 µM): < 5.00; pIC50 (second compound 0.316 µM): < 5.00; pIC50 (second compound 1 µM): < 5.00; pIC50 (second compound 3.16 µM): < 5.00; pIC50 (second compound 10 µM): < 5.00; viability, T/C [1]: 95.8%; viability, T/C [2]: 117%; viability, T/C [3]: 121%; viability, T/C [4]: 136%; viability, T/C [5]: 164%; viability, T/C [6]: 130%; viability, T/C [7]: 112%; viability, T/C [8]: 91.6%; viability, T/C [9]: 112%; viability, T/C [10]: 137%; viability, T/C [11]: 203%; viability, T/C [12]: 128%; viability, T/C [13]: 98%; viability, T/C [14]: 108%; viability, T/C [15]: 122%; viability, T/C [16]: 143%; viability, T/C [17]: 158%; viability, T/C [18]: 127%; viability, T/C [19]: 74.3%; viability, T/C [20]: 88.3%; viability, T/C [21]: 113%; viability, T/C [22]: 112%; viability, T/C [23]: 196%; viability, T/C [24]: 130%; viability, T/C [25]: 83.8%; viability, T/C [26]: 97.7%; viability, T/C [27]: 97%; viability, T/C [28]: 157%; viability, T/C [29]: 189%; viability, T/C [30]: 154%; viability, T/C [31]: 90.3%; viability, T/C [32]: 90.2%; viability, T/C [33]: 123%; viability, T/C [34]: 131%; viability, T/C [35]: 129%; viability, T/C [36]: 153%
